Results taken from publication PMC9133015 (Nature Communications, 2022).
Where “and” joins values, the source holds several entries; their conditions need not be identical. Equal values may be shown once.

Key:
Assay in all cases: Kinase inhibitor specificity profiling (Reaction Biology Corporation)
Assay type in all cases: biochemical
[1] = target: T1, panel of 370 protein kinases (Homo sapiens, UniProt Q16816); conditions: 2 h, kinase PHKg1; read-out: % Enzyme Activity (relative to DMSO controls)
T1 construct: purchased Reaction Biology Corporation (assay service)
T1 sequence (Q16816 whole entry): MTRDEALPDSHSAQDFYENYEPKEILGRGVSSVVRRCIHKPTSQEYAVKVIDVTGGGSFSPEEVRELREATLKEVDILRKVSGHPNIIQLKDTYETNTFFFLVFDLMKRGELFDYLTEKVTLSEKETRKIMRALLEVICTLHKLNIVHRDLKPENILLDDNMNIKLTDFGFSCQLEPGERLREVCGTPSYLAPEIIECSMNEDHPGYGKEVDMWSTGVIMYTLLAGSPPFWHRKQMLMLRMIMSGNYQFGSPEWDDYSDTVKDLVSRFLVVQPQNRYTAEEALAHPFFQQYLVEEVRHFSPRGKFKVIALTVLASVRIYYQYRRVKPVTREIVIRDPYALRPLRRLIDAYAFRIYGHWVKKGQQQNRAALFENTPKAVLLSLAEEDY

[2] = target: T2, panel of 370 protein kinases (Homo sapiens, UniProt Q5TCY1); conditions: 2 h, kinase TTBK1; read-out: % Enzyme Activity (relative to DMSO controls)
T2 construct: purchased Reaction Biology Corporation (assay service)

[3] = target: T3, panel of 370 protein kinases (Homo sapiens, UniProt P53350); conditions: 2 h, kinase PLK1; read-out: % Enzyme Activity (relative to DMSO controls)
T3 construct: purchased Reaction Biology Corporation (assay service)

[4] = target: T4, panel of 370 protein kinases (Homo sapiens, UniProt O75460); conditions: 2 h, kinase ERN1/IRE1; read-out: % Enzyme Activity (relative to DMSO controls)
T4 construct: purchased Reaction Biology Corporation (assay service)

[5] = target: T5, panel of 370 protein kinases (Homo sapiens, UniProt Q16644); conditions: 2 h, kinase MAPKAPK3; read-out: % Enzyme Activity (relative to DMSO controls)
T5 construct: purchased Reaction Biology Corporation (assay service)
T5 sequence (Q16644 whole entry): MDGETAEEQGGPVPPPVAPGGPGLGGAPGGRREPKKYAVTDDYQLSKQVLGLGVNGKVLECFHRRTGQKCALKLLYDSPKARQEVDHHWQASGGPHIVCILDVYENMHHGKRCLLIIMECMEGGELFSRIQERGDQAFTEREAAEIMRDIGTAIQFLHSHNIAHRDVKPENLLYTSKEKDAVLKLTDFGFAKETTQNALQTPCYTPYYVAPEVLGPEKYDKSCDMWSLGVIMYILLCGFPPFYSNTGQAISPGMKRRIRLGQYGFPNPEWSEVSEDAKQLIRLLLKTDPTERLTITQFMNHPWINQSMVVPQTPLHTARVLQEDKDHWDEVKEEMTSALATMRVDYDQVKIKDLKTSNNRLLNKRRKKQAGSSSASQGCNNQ

[6] = target: T6, panel of 370 protein kinases (Homo sapiens, UniProt Q9P286); conditions: 2 h, kinase PAK5; read-out: % Enzyme Activity (relative to DMSO controls)
T6 construct: purchased Reaction Biology Corporation (assay service)
T6 sequence (Q9P286 whole entry): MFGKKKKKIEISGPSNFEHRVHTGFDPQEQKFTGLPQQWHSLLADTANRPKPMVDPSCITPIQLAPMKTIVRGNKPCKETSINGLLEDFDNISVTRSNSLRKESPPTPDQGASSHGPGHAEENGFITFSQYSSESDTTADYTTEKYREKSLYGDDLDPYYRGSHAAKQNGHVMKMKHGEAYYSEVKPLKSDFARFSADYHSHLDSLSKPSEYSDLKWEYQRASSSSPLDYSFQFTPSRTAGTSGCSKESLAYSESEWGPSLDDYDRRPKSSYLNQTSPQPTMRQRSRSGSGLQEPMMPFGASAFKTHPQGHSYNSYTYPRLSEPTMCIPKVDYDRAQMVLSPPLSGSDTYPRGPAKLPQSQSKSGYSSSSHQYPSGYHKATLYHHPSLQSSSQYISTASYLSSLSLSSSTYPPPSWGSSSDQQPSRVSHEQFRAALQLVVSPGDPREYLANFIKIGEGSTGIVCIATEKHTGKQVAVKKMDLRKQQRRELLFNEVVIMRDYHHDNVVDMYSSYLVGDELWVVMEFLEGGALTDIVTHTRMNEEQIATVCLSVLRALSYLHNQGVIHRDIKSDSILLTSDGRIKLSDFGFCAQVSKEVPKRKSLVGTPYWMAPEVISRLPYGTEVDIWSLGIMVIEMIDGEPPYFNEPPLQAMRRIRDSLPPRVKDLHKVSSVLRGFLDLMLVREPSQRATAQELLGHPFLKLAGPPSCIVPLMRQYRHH

[7] = target: T7, panel of 370 protein kinases (Homo sapiens, UniProt Q96SB4); conditions: 2 h, kinase SRPK1; read-out: % Enzyme Activity (relative to DMSO controls)
T7 construct: purchased Reaction Biology Corporation (assay service)
T7 sequence (Q96SB4 whole entry): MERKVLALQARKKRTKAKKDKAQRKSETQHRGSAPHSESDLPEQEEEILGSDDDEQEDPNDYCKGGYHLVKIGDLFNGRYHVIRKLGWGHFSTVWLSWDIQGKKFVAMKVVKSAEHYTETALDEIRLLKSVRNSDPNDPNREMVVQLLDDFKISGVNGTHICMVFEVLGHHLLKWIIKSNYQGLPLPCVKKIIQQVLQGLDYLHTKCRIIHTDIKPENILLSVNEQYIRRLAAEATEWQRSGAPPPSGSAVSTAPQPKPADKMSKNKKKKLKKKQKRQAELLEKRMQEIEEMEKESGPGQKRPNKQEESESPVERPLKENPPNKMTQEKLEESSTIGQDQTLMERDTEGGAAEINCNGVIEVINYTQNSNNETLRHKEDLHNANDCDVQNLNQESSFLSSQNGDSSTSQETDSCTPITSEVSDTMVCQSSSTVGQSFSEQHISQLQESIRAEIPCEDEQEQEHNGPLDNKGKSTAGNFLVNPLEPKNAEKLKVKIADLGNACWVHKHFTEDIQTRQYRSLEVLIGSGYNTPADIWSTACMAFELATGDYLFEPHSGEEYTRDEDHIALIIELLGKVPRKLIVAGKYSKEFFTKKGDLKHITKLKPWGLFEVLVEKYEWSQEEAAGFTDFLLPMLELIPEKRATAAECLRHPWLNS

[8] = target: T8, panel of 370 protein kinases (Homo sapiens, UniProt P07949); conditions: 2 h, kinase RET; read-out: % Enzyme Activity (relative to DMSO controls)
T8 construct: purchased Reaction Biology Corporation (assay service)
T8 sequence (P07949 29-1114): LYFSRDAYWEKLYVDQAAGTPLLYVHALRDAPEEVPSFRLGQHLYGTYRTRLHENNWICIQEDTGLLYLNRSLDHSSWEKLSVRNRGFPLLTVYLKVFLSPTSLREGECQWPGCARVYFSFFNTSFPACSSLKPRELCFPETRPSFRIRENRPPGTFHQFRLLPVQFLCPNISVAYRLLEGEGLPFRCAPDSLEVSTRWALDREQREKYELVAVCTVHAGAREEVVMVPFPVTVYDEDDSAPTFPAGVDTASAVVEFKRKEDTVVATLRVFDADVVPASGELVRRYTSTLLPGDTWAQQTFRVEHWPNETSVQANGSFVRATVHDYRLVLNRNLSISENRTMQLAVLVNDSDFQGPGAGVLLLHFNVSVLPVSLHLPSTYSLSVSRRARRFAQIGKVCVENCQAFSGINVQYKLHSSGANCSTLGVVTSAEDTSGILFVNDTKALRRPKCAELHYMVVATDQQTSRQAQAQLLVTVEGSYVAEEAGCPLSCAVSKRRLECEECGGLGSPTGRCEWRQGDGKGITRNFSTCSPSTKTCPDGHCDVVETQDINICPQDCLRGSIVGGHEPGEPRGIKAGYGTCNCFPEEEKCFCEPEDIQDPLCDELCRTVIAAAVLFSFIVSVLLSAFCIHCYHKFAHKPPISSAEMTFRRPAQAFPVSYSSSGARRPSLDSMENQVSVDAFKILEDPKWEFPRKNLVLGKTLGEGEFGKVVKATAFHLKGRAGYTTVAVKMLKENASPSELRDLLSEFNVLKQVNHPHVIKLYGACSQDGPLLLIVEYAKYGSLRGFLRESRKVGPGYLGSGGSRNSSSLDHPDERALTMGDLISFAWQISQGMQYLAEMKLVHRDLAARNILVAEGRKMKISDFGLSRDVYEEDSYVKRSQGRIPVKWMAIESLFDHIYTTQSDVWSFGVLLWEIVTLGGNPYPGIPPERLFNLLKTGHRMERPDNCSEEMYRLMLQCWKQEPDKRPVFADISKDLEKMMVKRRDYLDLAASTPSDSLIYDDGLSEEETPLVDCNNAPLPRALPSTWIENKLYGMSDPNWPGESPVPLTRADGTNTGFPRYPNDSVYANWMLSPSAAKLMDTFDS

[9] = target: T9, panel of 370 protein kinases (Homo sapiens, UniProt P05129); conditions: 2 h, kinase PKCg; read-out: % Enzyme Activity (relative to DMSO controls)
T9 construct: purchased Reaction Biology Corporation (assay service)

[10] = target: T10, panel of 370 protein kinases (Homo sapiens, UniProt Q56UN5); conditions: 2 h, kinase YSK4/MAP3K19; read-out: % Enzyme Activity (relative to DMSO controls)
T10 construct: purchased Reaction Biology Corporation (assay service)

[11] = target: T11, panel of 370 protein kinases (Homo sapiens, UniProt P49841); conditions: 2 h, kinase GSK3b; read-out: % Enzyme Activity (relative to DMSO controls)
T11 construct: purchased Reaction Biology Corporation (assay service)

[12] = target: T12, panel of 370 protein kinases (Homo sapiens, UniProt Q15375); conditions: 2 h, kinase EPHA7; read-out: % Enzyme Activity (relative to DMSO controls)
T12 construct: purchased Reaction Biology Corporation (assay service)
T12 sequence (Q15375 28-998): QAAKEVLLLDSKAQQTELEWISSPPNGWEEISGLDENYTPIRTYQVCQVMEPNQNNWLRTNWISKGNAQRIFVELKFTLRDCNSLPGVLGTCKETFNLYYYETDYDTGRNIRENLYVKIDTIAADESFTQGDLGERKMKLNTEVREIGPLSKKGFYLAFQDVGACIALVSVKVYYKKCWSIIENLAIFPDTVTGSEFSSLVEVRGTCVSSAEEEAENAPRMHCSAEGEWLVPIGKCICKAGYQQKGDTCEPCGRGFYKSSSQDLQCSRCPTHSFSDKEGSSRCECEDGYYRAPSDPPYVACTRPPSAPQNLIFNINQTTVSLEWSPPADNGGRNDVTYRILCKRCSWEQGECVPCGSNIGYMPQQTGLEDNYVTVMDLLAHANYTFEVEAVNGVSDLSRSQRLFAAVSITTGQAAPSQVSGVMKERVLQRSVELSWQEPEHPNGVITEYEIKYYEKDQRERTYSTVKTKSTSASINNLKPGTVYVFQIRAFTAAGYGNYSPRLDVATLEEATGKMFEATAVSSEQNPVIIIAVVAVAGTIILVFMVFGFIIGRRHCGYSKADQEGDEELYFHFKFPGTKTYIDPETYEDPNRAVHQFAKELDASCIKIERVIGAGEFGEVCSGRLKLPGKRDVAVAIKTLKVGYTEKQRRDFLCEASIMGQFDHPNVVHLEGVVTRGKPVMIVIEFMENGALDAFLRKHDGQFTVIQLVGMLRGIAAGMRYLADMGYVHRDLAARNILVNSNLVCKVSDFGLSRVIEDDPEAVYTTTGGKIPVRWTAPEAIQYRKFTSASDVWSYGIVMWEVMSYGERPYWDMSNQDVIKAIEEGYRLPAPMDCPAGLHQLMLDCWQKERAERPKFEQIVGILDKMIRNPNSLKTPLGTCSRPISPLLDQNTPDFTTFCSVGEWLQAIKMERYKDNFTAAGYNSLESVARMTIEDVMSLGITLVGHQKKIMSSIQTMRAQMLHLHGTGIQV

[13] = target: T13, panel of 370 protein kinases (Homo sapiens, UniProt Q16512); conditions: 2 h, kinase PKN1/PRK1; read-out: % Enzyme Activity (relative to DMSO controls)
T13 construct: purchased Reaction Biology Corporation (assay service)

[14] = target: T14, panel of 370 protein kinases (Homo sapiens, UniProt P08069); conditions: 2 h, kinase IGF1R; read-out: % Enzyme Activity (relative to DMSO controls)
T14 construct: purchased Reaction Biology Corporation (assay service)

[15] = target: T15, panel of 370 protein kinases (Homo sapiens, UniProt P57078); conditions: 2 h, kinase RIPK4; read-out: % Enzyme Activity (relative to DMSO controls)
T15 construct: purchased Reaction Biology Corporation (assay service)

[16] = target: T16, panel of 370 protein kinases (Homo sapiens, UniProt O75676); conditions: 2 h, kinase MSK2/RPS6KA4; read-out: % Enzyme Activity (relative to DMSO controls)
T16 construct: purchased Reaction Biology Corporation (assay service)

[17] = target: T17, panel of 370 protein kinases (Homo sapiens, UniProt P43405); conditions: kinase SYK
T17 construct: purchased Reaction Biology Corporation (assay service)

[18] = target: T18, panel of 370 protein kinases (Homo sapiens, UniProt P42681); conditions: 2 h, kinase TXK; read-out: % Enzyme Activity (relative to DMSO controls)
T18 construct: purchased Reaction Biology Corporation (assay service)

[19] = target: T19, panel of 370 protein kinases (Homo sapiens, UniProt P51957); conditions: 2 h, kinase NEK4; read-out: % Enzyme Activity (relative to DMSO controls)
T19 construct: purchased Reaction Biology Corporation (assay service)
T19 sequence (P51957 whole entry): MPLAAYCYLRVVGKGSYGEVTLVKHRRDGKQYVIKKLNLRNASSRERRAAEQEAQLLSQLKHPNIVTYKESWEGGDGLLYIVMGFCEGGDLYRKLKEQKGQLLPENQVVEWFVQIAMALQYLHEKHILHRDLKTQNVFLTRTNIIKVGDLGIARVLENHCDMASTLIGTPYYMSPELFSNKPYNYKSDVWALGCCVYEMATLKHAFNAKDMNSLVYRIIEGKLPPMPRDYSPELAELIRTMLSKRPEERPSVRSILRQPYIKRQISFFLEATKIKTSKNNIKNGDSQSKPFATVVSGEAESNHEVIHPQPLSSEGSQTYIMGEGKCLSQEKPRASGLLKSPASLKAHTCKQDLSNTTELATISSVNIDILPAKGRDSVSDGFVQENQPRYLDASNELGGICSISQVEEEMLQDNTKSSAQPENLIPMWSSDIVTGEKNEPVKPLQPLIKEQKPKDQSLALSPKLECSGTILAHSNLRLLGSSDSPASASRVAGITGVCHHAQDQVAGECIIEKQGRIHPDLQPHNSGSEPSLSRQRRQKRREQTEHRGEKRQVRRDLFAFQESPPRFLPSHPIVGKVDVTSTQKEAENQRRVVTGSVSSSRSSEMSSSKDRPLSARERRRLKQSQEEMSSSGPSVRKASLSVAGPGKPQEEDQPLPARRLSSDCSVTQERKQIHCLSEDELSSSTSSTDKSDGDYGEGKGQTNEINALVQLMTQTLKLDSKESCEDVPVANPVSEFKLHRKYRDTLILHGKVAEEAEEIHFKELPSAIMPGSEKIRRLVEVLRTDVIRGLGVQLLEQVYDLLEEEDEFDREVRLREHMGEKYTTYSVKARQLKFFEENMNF

[20] = target: T20, panel of 370 protein kinases (Homo sapiens, UniProt P51813); conditions: 2 h, kinase BMX/ETK; read-out: % Enzyme Activity (relative to DMSO controls)
T20 construct: purchased Reaction Biology Corporation (assay service)

[21] = target: T21, panel of 370 protein kinases (Homo sapiens, UniProt Q13164); conditions: 2 h, kinase ERK5/MAPK7; read-out: % Enzyme Activity (relative to DMSO controls)
T21 construct: purchased Reaction Biology Corporation (assay service)

Structure (SMILES): CCN1CCN(C(=O)c2ccc(Nc3ncc(F)c(-c4ccc5nc(N(C)C)sc5c4)n3)nc2)CC1 [YK-2-69]
- remaining activity at 1 µM [1]: 89.4%
- remaining activity at 1 µM [2]: 97.4%
- remaining activity at 1 µM [3]: 115%
- remaining activity at 1 µM [4]: 89.3%
- remaining activity at 1 µM [5]: 116%
- remaining activity at 1 µM [6]: 101%
- remaining activity at 1 µM [7]: 91.8%
- remaining activity at 1 µM [8]: 88.1%
- remaining activity at 1 µM [9]: 90.9%
- remaining activity at 1 µM [10]: 97.8%
- remaining activity at 1 µM [11]: 60.8%
- remaining activity at 1 µM [12]: 83%
- remaining activity at 1 µM [13]: 75.7%
- remaining activity at 1 µM [14]: 102%
- remaining activity at 1 µM [15]: 92%
- remaining activity at 1 µM [16]: 96.2%
- % Enzyme Activity (relative to DMSO controls) [17]: 98.88% and 95.73%
- remaining activity at 1 µM [18]: 95.6%
- remaining activity at 1 µM [19]: 112%
- remaining activity at 1 µM [20]: 80.6%
- remaining activity at 1 µM [21]: 104%
